Measured values taken from patent publication US12048307B2, “Compositions, methods and uses for cleaning, disinfecting and/or sterilizing” (Collidion, Inc., priority 2017, dated 2024).

System: Bacillus subtilis (ATCC #19659) spores
Experiment: B. subtilis spore viability assay, 15 minutes treatment, with or without serum
Type: cell-based
Details: spore suspension about 1×10^6 cfu/mL, 48 hours incubation at 37° C. on TSA, >500 = too many colonies to count
Experimental: To prepare stock cultures of pathogenic spores, 10 mL nutrient broth was inoculated using a stock culture of Bacillus subtilis (ATCC #19659) and incubated on an orbital shaker for 24±2 hours at approximately 150 rpm at 36±1° C. This culture was used to inoculate Tryptic Soy Agar (TSA) plates. Each plate was inoculated with 500 μL of broth culture and the inoculum spread with a sterile L spreader. In addition, the purity of this culture was verified by streaking on TSA plates and incubating plates at 36±1° C. for 24±2 hours. Each plate was wrapped with parafilm. inverted and incubated for 12-14 days at 36±1° C. Following incubation, spores were harvested by adding 10 mL cold sterile water to each plate, the growth removed from the plates using a spreader, and the resulting suspensions were transferred into 15 mL sterile conical tubes. The suspensions were centrifuged at 5,000 rpm (4,500×g) for approximately 10 minutes at room temperature. After removal of the supernatant, the spore pellet was washed by re-suspending pellet with 10 mL cold sterile water and centrifuged at 5,000 rpm (4,500×g) for approximately 10 minutes. This washing step was repeated two more times. The spore pellet was re-suspended with 10 mL sterile water and the spore suspension was stored at 2-5° C. until needed. The spore suspension was stained using stain and the spores examined under the microscope to assess quality of the spores. A minimum of five fields were examined and the ratio of the spores to vegetative cells (or sporangia) was determined. Percentage of spores versus vegetative cells were about 95% spores. Spore titer was determined by preparing serial dilutions, plating the dilutions on TSA plates, incubating plates for 24±2 hours at 36±1° C., and counting the number of colonies formed to determine the titer. The test culture was standardized by using phosphate buffer to achieve a final test culture microbe population of 1.0×10^6 cfu/mL.
Assay samples were set up with or without serum, such as, e.g., Tryptic Soy Broth (TSB) or Bovine Serum (BS). The purpose of the serum was to better simulate the organic load of blood and other tissue which tends to deactivate an antimicrobial agent. In general, assays were conducted by first incubating a pathogen spore sample with a composition disclosed herein for a specified treatment time period, optionally with serum, and then culturing the sample on growth medium to assess spore viability.
In one series of experiments, assays where the samples were treated with serum were set up to contain 100 μL of pathogen spore suspension (containing about 1×10^6 cfu/mL), 50 μL of serum, and 850 μL of a composition described in Example 1. […] The inoculated plates were then incubated at 37° C. for 48 hours and the number of bacterial colonies, if any, counted. […]

Compound: O=CCCCC=O [0.5% Glutaraldehyde, Glutaraldehyde]
- Count (number of bacterial colonies), 5% Serum: >500
- Count (number of bacterial colonies), No Serum: >500

Compound: hypochlorous acid [97 ppm HOCl]
- Count (number of bacterial colonies), 5% Serum: >500
- Count (number of bacterial colonies), No Serum: 0
